# Laboratory results reported in article PMC10117764, “The roles of serine hydrolases and serum albumin in alisol B 23-acetate hydrolysis in humans” (Frontiers in Pharmacology, 2023).
# Assays:
# [1] = Hydrolytic half-life of AB23A in human liver microsomes; type: in vitro ADME; settings: human liver microsomes (HLMs), HLMs 0.1 mg/mL, PBS pH 7.4, read-out: t1/2 (hydrolytic/metabolic half-life)
# Protocol: (§1) The hydrolytic half-lives (t1/2) of AB23A in human plasma and different human tissue preparations were carried out according to the procedure of in vitro metabolic stability studies ([Ge et al., 2013]). The incubation mixture (1,000 μL) consisted of PBS (pH 7.4), enzyme sources (HLMs/HIMs/human plasma) and AB23A. 25% diluted human plasma was used, the protein concentrations of other tissue microsomes were 0.1 mg/mL. The 100 μL incubation mixture was moved to another containing ice-cold acetonitrile tube at different time points (0, 5, 15, 30, 45, 60, 90, 120 min). All samples were centrifuged for 30 min at 20,000 g 4°C and took the supernatants for LC-UV analysis.
# (§2) The incubation conditions were as follows: the classic incubation system included 100 mM potassium phosphate buffer (PBS, pH 7.4), enzyme sources, and AB23A. In all incubations, PBS and enzyme sources were pre-incubation at 37 °C for 3 min and the reaction was started by adding AB23A (the organic solvent content at most 1%). After reacting 1 h, ice-cold acetonitrile was added to terminate the reaction and precipitate proteins. The samples were centrifuged for 30 min at 20000 × g, 4 °C, and the supernatants were taken for further LC-UV analysis.
# [2] = Hydrolytic half-life of AB23A in human intestine microsomes; type: in vitro ADME; settings: human intestine microsomes (HIMs), HIMs 0.1 mg/mL, PBS pH 7.4, read-out: t1/2 (hydrolytic/metabolic half-life)
# Protocol: as §1, §2
# [3] = Hydrolytic half-life of AB23A in pig liver microsomes; type: in vitro ADME; settings: pig liver microsomes (PLMs), pH 7.4, PLMs 0.10 mg/mL, read-out: T1/2 (hydrolytic half-life)
# [4] = Hydrolytic half-life of AB23A in mouse liver microsomes; type: in vitro ADME; settings: mouse liver microsomes (MLMs), pH 7.4, MLMs 0.10 mg/mL, read-out: T1/2 (hydrolytic half-life)
# hCES1A [5] = biological target: T1, hCES1A (Homo sapiens, UniProt P23141); assay: Kinetic analysis of AB23A hydrolysis in hCES1A; type: in vitro ADME; settings: 1 h incubation
# T1 construct: 10xHis; made in house; host or cells: HEK293-F cells, pTT5 vector, purified from conditioned medium
# T1 sequence (P23141 18-563): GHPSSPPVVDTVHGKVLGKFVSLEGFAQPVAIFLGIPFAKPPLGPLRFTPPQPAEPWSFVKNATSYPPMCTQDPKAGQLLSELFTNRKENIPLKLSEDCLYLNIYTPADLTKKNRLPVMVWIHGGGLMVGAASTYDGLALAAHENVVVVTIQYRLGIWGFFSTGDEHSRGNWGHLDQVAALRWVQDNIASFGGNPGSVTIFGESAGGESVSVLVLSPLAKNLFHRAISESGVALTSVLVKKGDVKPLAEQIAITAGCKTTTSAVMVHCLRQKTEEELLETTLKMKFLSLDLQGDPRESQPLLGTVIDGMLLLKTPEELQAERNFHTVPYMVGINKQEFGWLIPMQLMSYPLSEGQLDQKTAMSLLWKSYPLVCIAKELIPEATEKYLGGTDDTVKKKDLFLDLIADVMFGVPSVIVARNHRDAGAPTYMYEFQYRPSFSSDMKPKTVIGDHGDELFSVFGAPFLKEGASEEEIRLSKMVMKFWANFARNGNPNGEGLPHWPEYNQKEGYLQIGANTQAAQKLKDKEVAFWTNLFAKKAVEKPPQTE
# Protocol: The enzymatic kinetics of AB23A hydrolysis in different tissue preparations (HLMs, HIMs, human plasma) and human recombinant enzymes (hCES1A, hCES2A, hSA, hBchE) were analyzed. The incubation system (200 μL) consisted of PBS, each tested enzyme, and AB23A (ranging from 0 to 1,000 μM). After incubating for 1 h, the supernatants were then used for LC-UV analysis. The kinetic parameters of AB23A hydrolysis were fitted by the following Michaelis−Menten Eq. 1 ([Zhang et al., 2022]). V=(Vmax×[S])⁄(Km+[S]) (1) Here, K m is the Michaelis constant of AB23A hydrolysis, V max is the maximum velocity of AB23A hydrolysis, V max /K m is used to calculate the intrinsic clearance (CL int ).
# [6] = AB23A hydrolysis in human kidney microsomes; type: in vitro ADME
# Protocol: as §1, §2
# hCES2A = biological target: T2, hCES2A (Homo sapiens, UniProt O00748); assay: Reaction phenotyping assay of AB23A hydrolysis, hCES2A; type: in vitro ADME; settings: hCES2A 5 μg/mL, AB23A 20 μM, 60 min, pH 7.4 at 37°C
# T2 construct: 10xHis; made in house; host or cells: HEK293-F cells, pTT5 vector, purified from conditioned medium
# T2 sequence (O00748 27-559): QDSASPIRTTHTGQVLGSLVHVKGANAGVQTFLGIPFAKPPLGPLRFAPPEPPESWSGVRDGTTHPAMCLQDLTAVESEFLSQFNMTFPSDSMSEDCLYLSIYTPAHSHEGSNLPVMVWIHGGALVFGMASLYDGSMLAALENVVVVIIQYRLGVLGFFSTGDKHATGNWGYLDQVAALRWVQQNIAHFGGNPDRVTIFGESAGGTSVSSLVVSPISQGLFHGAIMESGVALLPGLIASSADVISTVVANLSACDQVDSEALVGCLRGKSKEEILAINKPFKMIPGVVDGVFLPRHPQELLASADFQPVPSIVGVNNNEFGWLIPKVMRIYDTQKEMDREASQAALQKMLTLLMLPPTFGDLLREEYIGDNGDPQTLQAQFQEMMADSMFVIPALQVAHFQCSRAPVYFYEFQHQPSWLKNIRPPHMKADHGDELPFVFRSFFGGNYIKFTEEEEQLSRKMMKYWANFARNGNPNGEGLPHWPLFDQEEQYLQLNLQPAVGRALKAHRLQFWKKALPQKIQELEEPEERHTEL
# Protocol: (§3) The hydrolytic rates of AB23A in different human recombinant enzymes (hCES1A, hCES2A, hPL, hIAH1, hNotum, hAchE, hBchE, hSA, hCTSA, hMAGL) were assayed. The incubation system included PBS, each tested enzyme (5 μg/mL, final concentration), and AB23A (20 μM). After incubation for 1 h at 37°C, ice-cold acetonitrile was added to terminate the reaction and precipitate proteins. The supernatants by centrifuging were used to quantify the formation rates of AB by LC-UV analysis. The detection wavelength of AB was 196 nm.
# hCES1A [7] = biological target: T1, hCES1A; assay: Reaction phenotyping assay of AB23A hydrolysis, hCES1A; type: in vitro ADME; settings: hCES1A 5 μg/mL, AB23A 20 μM, 60 min, pH 7.4 at 37°C
# Protocol: as §3
# [8] = design: method as in Liu et al. (2022); settings: oral administration of Qingfei Paidu Decoction, ref Liu et al. (2022); cited from earlier work
compound,measurement,setting,value
"CC(=O)O[C@H](C[C@@H](C)C1=C2C[C@H](O)C3[C@@]4(C)CCC(=O)C(C)(C)C4CC[C@]3(C)[C@@]2(C)CC1)[C@H]1OC1(C)C (stereo partly drawn) [AB23A, Alisol B 23-acetate]",half-life,[1],41 ± 0.01 min
same,half-life,[2],68 ± 0.01 min
same,half-life,[3],9.5 ± 0.05 min
same,half-life,[4],2.3 ± 0.01 min
same,K m of AB23A hydrolysis,hCES1A [5],190.80 ± 31.41 µM
same,Formation of AB (hydrolytic metabolite) in HKMs,[6],trace amount of AB
same,Hydrolytic rate (formation of AB) in reaction phenotyping,hCES2A,also catalyzed this hydrolytic reaction
same,Hydrolytic rate (formation of AB) in reaction phenotyping,hCES1A [7],also catalyzed this hydrolytic reaction
same,Detection in mice plasma and liver,[8],hardly detected
